ChEMBL document CHEMBL1201862, “PubChem BioAssay data set” (2004)
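Cultured in 96-well plates, cells were exposed to test compound for 48 hours across five concentrations. Here, GI50 denotes the concentration required for 50% inhibition of growth.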 The source made the active and inactive calls. No stated cut-off is given here; in the data, active = GI50 up to about 1.1 µM and inactive = higher.

How the values were obtained:
Assay in all cases: growth of human tumour cells (NCI), 48 h
SN12C = system: SN12C
NCI-H460 = system: NCI-H460
TK-10 = system: TK-10
HCT-116 = system: HCT-116
SNB-75 = system: SNB-75
HOP-18 = system: HOP-18
HCC 2998 = system: HCC 2998
ACHN = system: ACHN
UO-31 = system: UO-31
OVCAR-3 = system: OVCAR-3
KM-20L2 = system: KM-20L2
786-0 = system: 786-0
LOX IMVI = system: LOX IMVI
NCI-H522 = system: NCI-H522
RXF 393 = system: RXF 393
DMS-114 = system: DMS-114
XF498 = system: XF498
IGROV-1 = system: IGROV-1
SNB-78 = system: SNB-78
A549 = system: A549
UACC-257 = system: UACC-257
OVCAR-8 = system: OVCAR-8
MOLT-4 = system: MOLT-4
SF-295 = system: SF-295
SF-268 = system: SF-268
M19-MEL = system: M19-MEL
SK-OV-3 = system: SK-OV-3
HCT-15 = system: HCT-15
NCI-H23 = system: NCI-H23
SK-MEL-5 = system: SK-MEL-5
Malme-3M = system: Malme-3M
HOP-62 = system: HOP-62
RPMI-8226 = system: RPMI-8226
DMS-273 = system: DMS-273
K562 = system: K562
SK-MEL-2 = system: SK-MEL-2
SF-539 = system: SF-539
RXF 631 = system: RXF 631
OVCAR-4 = system: OVCAR-4
HL-60 = system: HL-60
A498 = system: A498
EKVX = system: EKVX
M14 = system: M14
SW-620 = system: SW-620
UACC-62 = system: UACC-62
CCRF-CEM = system: CCRF-CEM
NCI-H226 = system: NCI-H226
KM12 = system: KM12
U-251 = system: U-251
OVCAR-5 = system: OVCAR-5
SNB-19 = system: SNB-19
HT-29 = system: HT-29
CAKI-1 = system: CAKI-1
LXFL 529 = system: LXFL 529
COLO 205 = system: COLO 205

## COC(=O)C1C=NNC1C(=O)OC (stereo not given)
SN12C
  GI50: > 100 µM (inactive)
NCI-H460
  GI50: > 100 µM (inactive)
TK-10
  GI50: > 100 µM (inactive)
HCT-116
  GI50: > 100 µM (inactive)
SNB-75
  GI50: > 100 µM (inactive)
HOP-18
  GI50: > 100 µM (inactive)
HCC 2998
  GI50: > 100 µM (inactive)
ACHN
  GI50: > 100 µM (inactive)
UO-31
  GI50: > 100 µM (inactive)
OVCAR-3
  GI50: > 100 µM (inactive)
KM-20L2
  GI50: > 100 µM (inactive)
786-0
  GI50: > 100 µM (inactive)
LOX IMVI
  GI50: > 100 µM (inactive)
NCI-H522
  GI50: > 100 µM (inactive)
RXF 393
  GI50: > 100 µM (inactive)
DMS-114
  GI50: > 100 µM (inactive)
XF498
  GI50: > 100 µM (inactive)
IGROV-1
  GI50: > 100 µM (inactive)
SNB-78
  GI50: > 100 µM (inactive)
A549
  GI50: > 100 µM (inactive)
UACC-257
  GI50: > 100 µM (inactive)
OVCAR-8
  GI50: > 100 µM (inactive)
MOLT-4
  GI50: > 100 µM (inactive)
SF-295
  GI50: > 100 µM (inactive)
SF-268
  GI50: > 100 µM (inactive)
M19-MEL
  GI50: > 100 µM (inactive)
SK-OV-3
  GI50: > 100 µM (inactive)
HCT-15
  GI50: > 100 µM
NCI-H23
  GI50: > 100 µM (inactive)
SK-MEL-5
  GI50: > 100 µM (inactive)
Malme-3M
  GI50: > 100 µM (inactive)
HOP-62
  GI50: > 100 µM (inactive)
RPMI-8226
  GI50: > 100 µM (inactive)
DMS-273
  GI50: > 100 µM (inactive)
K562
  GI50: > 100 µM (inactive)
SK-MEL-2
  GI50: > 100 µM (inactive)
SF-539
  GI50: > 100 µM (inactive)
RXF 631
  GI50: > 100 µM (inactive)
OVCAR-4
  GI50: > 100 µM (inactive)
HL-60
  GI50: > 100 µM (inactive)
A498
  GI50: > 100 µM (inactive)
EKVX
  GI50: > 100 µM (inactive)
M14
  GI50: > 100 µM (inactive)
SW-620
  GI50: > 100 µM (inactive)
UACC-62
  GI50: > 100 µM (inactive)
CCRF-CEM
  GI50: > 100 µM (inactive)
NCI-H226
  GI50: > 100 µM (inactive)
KM12
  GI50: > 100 µM (inactive)
U-251
  GI50: > 100 µM (inactive)
OVCAR-5
  GI50: > 100 µM (inactive)
SNB-19
  GI50: 57.3 µM (inactive)
HT-29
  GI50: > 100 µM (inactive)
CAKI-1
  GI50: > 100 µM (inactive)
LXFL 529
  GI50: > 100 µM (inactive)
COLO 205
  GI50: > 100 µM (inactive)
